# Source: patent US8367695B2, “Condensed tetrahydroquinoline derivative and use thereof for medical purposes” (Mitsubishi Tanabe Pharma Corporation, priority 2007, dated 2013)
# Like-named read-outs stand apart in the source and are kept apart here.
# Molecular target: T1, human recombinant mineralocorticoid receptor (MR) (Homo sapiens, UniProt P08235)
# T1 construct: made in house; host or cells: insect cell Sf9 (baculovirus)
# T1 sequence (P08235 1-984): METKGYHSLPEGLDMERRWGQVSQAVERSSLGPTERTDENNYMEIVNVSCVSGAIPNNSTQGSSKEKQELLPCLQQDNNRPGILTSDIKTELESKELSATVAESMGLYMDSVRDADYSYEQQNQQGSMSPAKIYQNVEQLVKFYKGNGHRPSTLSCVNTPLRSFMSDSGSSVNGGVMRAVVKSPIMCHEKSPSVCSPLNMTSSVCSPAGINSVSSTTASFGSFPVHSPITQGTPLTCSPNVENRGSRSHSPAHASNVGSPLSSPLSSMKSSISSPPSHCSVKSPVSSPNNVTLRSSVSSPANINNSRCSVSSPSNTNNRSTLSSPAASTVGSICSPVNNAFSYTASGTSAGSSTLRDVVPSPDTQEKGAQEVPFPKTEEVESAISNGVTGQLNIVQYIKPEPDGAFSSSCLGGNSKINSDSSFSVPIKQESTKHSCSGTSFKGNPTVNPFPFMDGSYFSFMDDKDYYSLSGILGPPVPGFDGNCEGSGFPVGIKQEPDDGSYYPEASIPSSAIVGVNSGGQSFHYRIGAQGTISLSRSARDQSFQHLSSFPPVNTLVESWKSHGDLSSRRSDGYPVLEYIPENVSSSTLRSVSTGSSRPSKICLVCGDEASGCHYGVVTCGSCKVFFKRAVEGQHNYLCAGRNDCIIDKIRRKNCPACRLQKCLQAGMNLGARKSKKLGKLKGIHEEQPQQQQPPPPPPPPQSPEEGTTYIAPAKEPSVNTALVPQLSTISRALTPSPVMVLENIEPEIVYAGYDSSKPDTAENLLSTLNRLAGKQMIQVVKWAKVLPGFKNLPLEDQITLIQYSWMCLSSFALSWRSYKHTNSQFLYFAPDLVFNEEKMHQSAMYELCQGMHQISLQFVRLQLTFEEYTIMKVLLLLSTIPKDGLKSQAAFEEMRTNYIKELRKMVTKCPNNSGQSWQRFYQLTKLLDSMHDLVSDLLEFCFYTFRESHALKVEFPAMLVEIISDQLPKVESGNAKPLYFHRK
# Experiment: Radioactive ligand binding test, MR cytosol, [3H]-Ald
# Description: Radioactive Ligand Binding Test Using Cytosols of Human Glucocorticoids Receptor, Progesterone Receptor and Mineralocorticoid Receptor
# The procedures described in Neuroimmunomodulation (1994, 1, p. 66-73) and Invest. Opthalmol. Vis. Sci. (1996, 37, p. 805-813) were modified and used. In brief, cytosol preparations of human recombinant glucocorticoids receptor (GR) and human recombinant progesterone receptor-B (PRB) were purchased from Invitrogen (Carlsbad, Calif.), and a cytosol preparation of human recombinant mineralocorticoid receptor (MR) was prepared by our company (Yokohama, JP). MR cDNA was cloned into a baculovirus expression vector and expressed in insect cell Sf9. The procedures described in J. Biol. Chem. (1991, 266, p. 18072-18081), Proc. Natl. Acad. Sci. USA (1991, 88, p. 10681-10685) and Bac-to-Bac (registered trade mark) Baculovirus Expression Systems technical manual (Invitrogen) were partly modified and used as the procedures for MR gene cloning up to preparation of recombinant receptor cytosol. [^3H]-Dexamethasone (Dex, specific activity 91.0 Ci/mmol) was purchased from GE Healthcare (Buckinghamshire, UK), and [^3H]-progesterone (Prog, specific activity 103 Ci/mmol) and [3H]-aldosterone (Ald, specific activity 87.9 Ci/mmol) were each purchased from PerkinElmer (Boston, Mass.). Polypropylene round-bottomed 96 well plate was obtained from ABgene (Epsom, UK). Dimethyl Sulfoxide (DMSO) and hydrochloric acid were obtained from Kanto Chemical (TOKYO, JP). Trizma Base (Tris), Bovine Serum Albumin (BSA) and Sodium tungstate dihydrate were obtained from Sigma Chemicals (St. Louis, Mo.). Dithiothreitol (DTT) and Dextran 70 were obtained from GE Healthcare (Buckinghamshire, UK). Glycerol was obtained from Junsei Chemical (TOKYO, JP). Norit® “SX-II” was obtained from Wako Pure Chemical Industries, Ltd. (Osaka, JP). MeltiLex™, A, Printed Filtermat A and Sample Bag were obtained from PerkinElmer (Boston, Mass.).
# As a buffer for GR binding assay, 25 mM Tris-HCl (4° C., pH 7.4)/1 mM EDTA·2Na/1 mM DTT/0.1% BSA was prepared and used. As buffers for PRB and MR binding assay, 10 mM Tris-HCl (4° C., pH 7.4)/1 mM DTT/0.1% BSA/10% glycerol and 20 mM Tris-HCl (4° C., pH 7.4)/1 mM EDTA·2Na/10% glycerol/20 mM sodium tungstate were respectively prepared and used. As dextran-coated charcoal (DCC) for B/F separation, 0.75% Dextran 70/0.75% Norit® SX-II/10 mM Tris-HCl (4° C., pH 7.4) was prepared and used.
# Compound storage solutions (5-20 mM) were prepared using DMSO. The storage solutions were diluted with DMSO to 0.1 mM (for GR) and 0.3 mM (for PRB and MR), and further diluted 20-fold with distilled water to give solutions. Then, the preparations were diluted to each concentration with 5% DMSO solution. 1% DMSO was present at the time of the binding assay.
# In the case of MR binding assay, [^3H]-Ald (about 4 nM), MR cytosol (about 1 mg/mL concentration of total protein), a test compound and a binding buffer were mixed in a total volume of 50 μL, and the mixture was stood at 4° C. for 30 min or longer. A specific binding was defined to be the difference in the [^3H]-Ald binding between the presence and the absence of 1 μM unlabeled Ald.
# After the reaction, 50 μL of DCC was added to each well and blended. Thereafter, the mixture was stood at 4° C. for 10 min. The plate was applied to high-speed cooling centrifuge under the conditions of 4° C., 2000 rpm, 5 min to perform B/F separation. A given amount of the supernatant was recovered, which was spotted on Filtermat A of 96 well format (PerkinElmer) and rapidly dried at a high temperature. Then, solid scintillator MeltiLex A (PerkinElmer) was melted on Filtermat A. The mixture was placed in a Sample Bag (PerkinElmer), and the level of radioactivity was measured by plate reader 1450 Micro Beta TRILUX (PerkinElmer).
# Measurement of Inhibition Constant (Ki)
compound,measurement,setting,value
"Cc1noc(C)c1-c1cc2c(c3c1CCC3)NC(C)(C)C(=O)C2(C)C [Example 2, 6-(3,5-dimethylisoxazol-4-yl)-2,2,4,4-tetramethyl-2,3,4,7,8,9-hexahydro-1H-cyclopenta[h]quinolin-3-one]",Ki,,> 1000 nM
"CC1(C)Nc2c(cc(-c3ccnc4cc[nH]c34)c3c2CCC3)C(C)(C)C1=O [Example 13, 2,2,4,4-tetramethyl-6-(1H-pyrrolo[3,2-b]pyridin-7-yl)-2,3,4,7,8,9-hexahydro-1H-cyclopenta[h]quinolin-3-one]",Ki,,> 1000 nM
"CC1(C)Nc2c(cc(-c3cccc4nccn34)c3c2CCC3)C(C)(C)C1=O [Example 14, 6-(imidazo[1,2-a]pyridin-5-yl)-2,2,4,4-tetramethyl-2,3,4,7,8,9-hexahydro-1H-cyclopenta[h]quinolin-3-one]",Ki,,> 1000 nM
"CC1(C)Nc2c(cc(-c3cccc4nncn34)c3c2CCC3)C(C)(C)C1=O [Example 17, 2,2,4,4-tetramethyl-6-([1,2,4]triazolo[4,3-a]pyridin-5-yl)-2,3,4,7,8,9-hexahydro-1H-cyclopenta[h]quinolin-3-one]",Ki,,> 1000 nM
"CC1(C)Nc2c(cc(-c3cccc4ncccc34)c3c2CCC3)C(C)(C)C1=O [Example 20, 2,2,4,4-tetramethyl-6-(quinolin-5-yl)-2,3,4,7,8,9-hexahydro-1H-cyclopenta[h]quinolin-3-one]",Ki,,> 1000 nM
"CC1(C)Nc2c(cc(-c3ccnc4ncccc34)c3c2CCC3)C(C)(C)C1=O [Example 21, 2,2,4,4-tetramethyl-6-([1,8]naphthyridin-4-yl)-2,3,4,7,8,9-hexahydro-1H-cyclopenta[h]quinolin-3-one]",Ki,,> 1000 nM
"C=C1C(C)(C)Nc2c(cc(-c3c(C)ncn3C)c3c2CCC3)C1(C)C [Example 29, 6-(3,5-dimethyl-3H-imidazol-4-yl)-2,2,4,4-tetramethyl-3-methylene-2,3,4,7,8,9-hexahydro-1H-cyclopenta[h]quinoline]",Ki,,> 1000 nM
"C=CCC1(C)C(=O)C(C)(C)Nc2c1cc(-c1ccc(O)cc1C)c1c2CCC1 (centres unmarked) [Example 50, 4-allyl-6-(4-hydroxy-2-methylphenyl)-2,2,4-trimethyl-2,3,4,7,8,9-hexahydro-1H-cyclopenta[h]quinolin-3-one]",Ki,,> 1000 nM
"C=CCC1(C)C(=O)C(C)(C)Nc2c1cc(-c1c(C)noc1C)c1c2CCC1 (centres unmarked) [Example 51, 4-allyl-6-(3,5-dimethylisoxazol-4-yl)-2,2,4-trimethyl-2,3,4,7,8,9-hexahydro-1H-cyclopenta[h]quinolin-3-one]",Ki,,> 1000 nM
"C=CCC1(C)C(=O)C(C)(C)Nc2c1cc(-c1cccc3nccn13)c1c2CCC1 (centres unmarked) [Example 57, 4-allyl-6-(imidazo[1,2-a]pyridin-5-yl)-2,2,4-trimethyl-2,3,4,7,8,9-hexahydro-1H-cyclopenta[h]quinolin-3-one]",Ki,,> 1000 nM
"CCC1(C)C(=O)C(C)(C)Nc2c1cc(-c1cccc3nccn13)c1c2CCC1 (centres unmarked) [Example 58, 4-ethyl-6-(imidazo[1,2-s]pyridin-5-yl)-2,2,4-trimethyl-2,3,4,7,8,9-hexahydro-1H-cyclopenta[h]quinolin-3-one]",Ki,"[3H]-Ald about 4 nM, MR cytosol (Sf9), 4° C., Cheng-Prusoff, Kd about 2.0 nM, read-out: MR (Ki: nM)",> 1000 nM
"CC#CCC1(C)C(=O)C(C)(C)Nc2c1cc(-c1cccc3nccn13)c1c2CCC1 (centres unmarked) [Example 63, 4-(2-butynyl)-6-(imidazo[1,2-a]pyridin-5-yl)-2,2,4-trimethyl-2,3,4,7,8,9-hexahydro-1H-cyclopenta[h]quinolin-3-one]",Ki,,> 1000 nM
"Cc1noc(C)c1-c1cc2c(c3c1OCO3)NC(C)(C)C(=O)C2(C)C [Example 69, 4-(3,5-dimethylisoxazol-4-yl)-6,6,8,8-tetramethyl-6,7,8,9-tetrahydro-[1,3]dioxolo[4,5-h]quinolin-7-one]",Ki,,> 1000 nM
"CC1(C)Nc2c(cc(-c3cccc4nccn34)c3c2OCO3)C(C)(C)C1=O [Example 71, 4-(imidazo[1,2-a]pyridin-5-yl)-6,6,8,8-tetramethyl-6,7,8,9-tetrahydro-[1,3]dioxolo[4,5-h]quinolin-7-one]",Ki,,> 1000 nM
"CC1(C)Nc2c(cc(-c3cccc4ncccc34)c3c2OCO3)C(C)(C)C1=O [Example 72, 6,6,8,8-tetramethyl-4-(quinolin-5-yl)-6,7,8,9-tetrahydro-[1,3]dioxolo[4,5-h]quinolin-7-one]",Ki,,> 1000 nM
"C=CCC1(C)C(=O)C(C)(C)Nc2c1cc(-c1cccc3cc[nH]c13)c1c2OCO1 (centres unmarked) [Example 78, 6-allyl-4-(1H-indol-7-yl)-6,8,8-trimethyl-6,7,8,9-tetrahydro-[1,3]dioxolo[4,5-h]quinolin-7-one]",Ki,,> 1000 nM
"CC1(C)Nc2c(cc(-c3cccc4nccn34)c3c2OC(F)(F)O3)C(C)(C)C1=O [Example 82, 2,2-difluoro-4-(imidazo[1,2-a]pyridin-5-yl)-6,6,8,8-tetramethyl-6,7,8,9-tetrahydro-[1,3]dioxolo[4,5-h]quinolin-7-one]",Ki,,> 1000 nM
